Molecules are shown by their SMILES.

The target in data set [1] is T1, 5-hydroxytryptamine receptor 3A (Rattus norvegicus, UniProt P35563).
T1 sequence (P35563 whole entry): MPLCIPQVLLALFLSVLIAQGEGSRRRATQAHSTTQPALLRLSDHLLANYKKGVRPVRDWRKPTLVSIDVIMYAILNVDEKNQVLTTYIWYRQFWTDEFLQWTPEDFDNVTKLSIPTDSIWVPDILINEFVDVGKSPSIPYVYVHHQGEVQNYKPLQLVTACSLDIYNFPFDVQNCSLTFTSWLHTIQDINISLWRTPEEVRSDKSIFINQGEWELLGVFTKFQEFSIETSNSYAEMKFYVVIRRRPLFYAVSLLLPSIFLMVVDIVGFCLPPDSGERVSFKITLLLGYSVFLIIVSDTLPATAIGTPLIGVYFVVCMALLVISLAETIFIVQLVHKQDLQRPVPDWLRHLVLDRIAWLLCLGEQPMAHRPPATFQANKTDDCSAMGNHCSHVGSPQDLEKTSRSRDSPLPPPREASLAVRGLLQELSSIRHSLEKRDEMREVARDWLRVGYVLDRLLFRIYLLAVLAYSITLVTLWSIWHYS
The data set is described as follows: Compound was tested in vitro for its antagonistic activity against 5-hydroxytryptamine 3 receptor. The data set is classed as functional.

Data set [2] has as its target T1, 5-hydroxytryptamine receptor 3A. As to the kind of experiment: Compound was tested for its antagonistic activity against 5-hydroxytryptamine 3 receptor in rat brain using [3H]zacopride as the radioligand. The data set is classed as functional, tissue-based.
The target is the same in data set [3]. The data set is described as follows: Compound was tested for its binding affinity towards 5-hydroxytryptamine 3 receptor in whole rat brain using [125I]DAIZAC as the radioligand.
For data set [4] the target is unchanged. As to the kind of experiment: Compound was tested in vitro for its antagonistic activity against 5-hydroxytryptamine 3 receptor in rat CNS. Type of data set: functional.
For data set [5] the target is unchanged. The data set is described as follows: Compound was tested for its binding affinity towards 5-hydroxytryptamine 3 receptor in whole rat brain using (S)-[125I]-zacopride as the radioligand.
A short description of data set [6]: Apparent lipophilicity value of the compound. Type of data set: physicochemical. The conditions noted are these: octanol/water.
The target of data set [7] is T1, 5-hydroxytryptamine receptor 3A. The data set is described as follows: Compound was tested for its binding affinity towards 5-hydroxytryptamine 3 receptor.
Data set [8] shares this target. As to the kind of experiment: Compound was tested for its binding affinity towards 5-HT-3 receptor in whole rat brain using (S)-[125I]-zacopride as the radioligand.

For the molecule `COc1c(I)cc(Cl)cc1C(=O)N[C@@H]1CN2CCC1CC2`, the Kd in data set [1] amounted to 150 pM.

In turn, `COc1cc(N)c(Cl)cc1C(=O)NC1CN2CCC1CC2` (centres undefined) [ZACOPRIDE] displayed a Kd in data set [2] of 600 pM.

As for `COc1cc(N)c(I)cc1C(=O)NC1CN2CCC1CC2` (centres undefined), the results for the Ki in data set [3] and in data set [5] were 1370 pM and 1070 pM, respectively. For the same molecule, the affinity in data set [4], expressed as Kd, was 2600 pM.

Regarding `COc1c(C(=O)N[C@@H]2CN3CCC2CC3)cc(Cl)c(N)c1I`, the logD in data set [6] was determined as 2.12. Moreover, the figures for the Ki in data set [7], in data set [3] and in data set [8] were 50 pM, 75 pM and 52 pM, respectively.

The Kd is a measure of binding affinity in units of concentration. For orientation: Ki means the dissociation constant of the complex between target and ligand, obtained from inhibition or displacement. By logD is commonly meant the decadic logarithm of the distribution of all forms, ionised or not, between an organic phase and buffer at a given pH.

Source of the values: ChEMBL document CHEMBL1129720, “(S)-4-amino-5-chloro-3-iodo-2-methoxy-N-(1-azabicyclo[2.2.2]oct-3-yl)benzamide (TRIZAC), a high-affinity ligand for the 5-HT-3 receptor” (Bioorg Med Chem Lett, 1996).
